For data set [1], the system named is 3T3-L1 cells (pre-adipocytes). The data set can be described thus: Stimulatory activity of triglyceride (TG) accumulation in 3T3-L1 cells (pre-adipocytes). It is filed as cell-based. The following applies: test compound 1 × 10^−5 M with insulin; 1×10^−6 M pioglitazone defined as 100%, insulin (+) without the chemical agent defined as 0%. The method, then: Stimulatory activity of triglyceride (TG) accumulation in 3T3-L1 cells (pre-adipocytes)
3T3-L1 cells just before a confluent state were prepared in an F75 flask. The medium was removed, and the residue was washed twice with 5 ml of PBS (−). The cells were detached using a solution of EDTA and trypsin. Ten milliliters of the medium were added thereto to form a suspension. This suspension was collected in a 50-milliliter centrifuge tube, and was subjected to centrifugation at 1,000 rpm for 5 minutes. Thus, the cells were precipitated, and the supernatant was removed. The cells were re-suspended in 20 ml of the medium, and the number of cells was counted. The suspension was adjusted such that the concentration of the cells reached 6×10^4 cells/ml, and was inoculated into a 24-well plate in an amount of 1 ml/well. In this state, the incubation was conducted in an incubator at 37° C. in 5% CO2 for 2 days.
A solution of 1-mM dexamethasone and 500-mM IBMX was prepared in DMSO. […]
Four to five days after the addition of the test chemical agent and the insulin solution, the 24-well plate was withdrawn from the incubator. […] Subsequently, the residue was extracted twice with isopropyl alcohol, and TG was measured at a wavelength of 410 nm using a TG-measuring kit (acetyl-acetone method). […]

In the next data set the test system is db/db mice. In words: Test for activity of decreasing plasma glucose using db/db mice. The format is in vivo. The following applies: female db/db mice, difference between db/db and +/+ mouse defined as 100%. The method, then: Test for activity of decreasing plasma glucose using db/db mice
Five-week-old female mice [C57BL/KsJ-dbm db+/db+, C57BL/KsJ-dbm +m/+m (Jackson Laboratory) were purchased, and were kept for 2 to 3 weeks. Then, these mice were used in the test.
A test compound was mixed with a powdered chow (CE-2, made by Nippon Clea) using a mortar. According to the amount of food intake of the mouse, the mixing ratios, 0.1%, 0.03%, and 0.01% corresponded to 100, 30, and 10 mg/kg body weight, respectively. The mixed chow was changed twice a week. The feed amount and the remaining amount were recorded, and the intake was calculated from the difference therebetween.
The female db/db mice were grouped according to the body weight, the plasma glucose and the plasma triglyceride concentrations. Then, the mixture containing the test compound was administered to the mice for 14 days (from 8 to 10 weeks old). […] Plasma glucose, triglyceride, and insulin concentrations were measured on day 0 and day 14 as well as plasma glucose and triglyceride concentrations on day 7. The body weight was measured on day 0, day 7, and day 14. […]
The plasma glucose was measured by a glucose oxidase method (Glucose CII-Test Wako made by Wako Pure Chemical Industries, Ltd.) using from 10 to 15 μl of plasma. The plasma triglyceride concentration was measured by a GPO-p-chlorophenol method (Triglyceride G-Test Wako made by Wako Pure Chemical Industries, Ltd.) or a GPO-DAOS method (Triglyceride E-Test Wako) using from 10 to 15 μl of plasma. […] The plasma insulin concentration was measured by radio immuno assay method (Phadesef Insulin RIA Kit made by Cabi Pharmacia) using 20 μl of plasma (which can be stored at −20° C.).
The difference in the plasma glucose and the plasma triglyceride concentrations betweeen the db/db mouse and the +/+ mouse was defined as 100%, and the rate (%) of decrease in the plasma glucose and the plasma triglyceride concentrations of the group to which the test compound was administered was calculated.

[2] abbreviates: dose 30 mg/kg mixed with powdered chow for 14 days.

Regarding `O=C(NS(=O)(=O)Cc1ccccc1)c1ccc2nc(C3CC3)n(Cc3ccccc3F)c2c1` [6-benzylsulfonylcarbamoyl-2-cyclopropyl-1-(2-fluorobenzyl)benzimidazole], the “Stimulatory activity of TG accumulation (%)” value in data set [1] was 38.2%. As for `Cc1nc2ccc(C(=O)NS(=O)(=O)c3ccccc3)cc2n1Cc1ccccc1Cl` [Compound (163), 6-benzenesulfonylcarbamoyl-1-(2-chlorobenzyl)-2-methylbenzimidazole], the melting point is 273.5 to 274.3 °C. Also, in the data set with db/db mice (setting [2]), the “Activity of decreasing plasma glucose (%)” value worked out at 72%. `CCCCS(=O)(=O)NC(=O)c1ccc2nc(C)n(Cc3ccc(-c4ccccc4)cc3)c2c1` [Compound (172), 1-(biphenyl-4-ylmethyl)-6-(1-butanesulfonylcarbamoyl)-2-methylbenzimidazole]: the “Activity of decreasing plasma glucose (%)” value with db/db mice (dose 10 mg/kg mixed with powdered chow for 14 days) is on record as 70-80%. As to `O=C(NS(=O)(=O)c1ccccc1)c1ccc2nc(C3CC3)n(Cc3ccccc3F)c2c1` [Compound (177), 6-benzenesulfonylcarbamoyl-2-cyclopropyl-1-(2-fluorobenzyl)benzimidazole], in the data set on db/db mice (setting [2]), the “Activity of decreasing plasma glucose (%)” value was 34.5%. In turn, `Cc1nc2ccc(CCC(=O)NS(=O)(=O)c3ccccc3)cc2n1Cc1ccccc1Cl` [Compound (266), N-benzenesulfonyl-3-[1-(2-chlorobenzyl)-2-methylbenzimidazole-6-yl]propionamide] had a melting point of 229.8 to 233 °C. With `CCCCS(=O)(=O)NC(=O)c1ccc2nc(C)n(Cc3ccc(C(=O)c4ccccc4)cc3)c2c1` [Compound (373), 1-[(4-benzoyl)benzyl]-6-(1-butanesulfonylcarbamoyl)-2-methylbenzimidazole], the melting point is 111 to 112.4 °C. Same read-out and setting: the result for `CCCCS(=O)(=O)NC(=O)c1ccc2nc(O)n(Cc3ccc(Cl)cc3Cl)c2c1` [Compound (379), 6-(1-butanesulfonylcarbamoyl)-1-(2,4-dichlorobenzyl)-2-hydroxybenzimidazole] reads 254 to 256 °C.

Usually melting point stands for the temperature, or range, at which the solid turns liquid.

Source of the values: patent US6352985B1, “Benzimidazole compounds” (Fujisawa Pharmaceutical Co., Ltd., priority 1995, dated 2002).
